This is an account of results in patent publication US20150320836A1, “CRYOPRESERVATION OF CELLS INSIDE A MACRO-ENCAPSULATION DEVICE” (The Regents of the University of California, priority 2012, published 2015).

Molecules are shown by their SMILES. Where two headings read alike, the source gives them in different places. Some results are limits rather than exact numbers.

Data set [1] relates to human Ins-G cells. It is filed as cell-based. How it is done:
The sensitivity of dissociated human Ins-G cells to DMSO without cryopreservation (CP) was investigated. […] Temperatures ranging from 0° C. to 37° C. were investigated. Regardless, cell viability was practically indistinguishable from control cells not exposed to DMSO (FIG. 1A, column #1).
In prior studies with a macro-encapsulation device, we loaded cells into devices immediately prior to transplantation. Thus, until now we have not exposed encapsulated cells to CPA, yet the ability to freeze preloaded devices would ensure reproducibility between experiments and among users. The process of loading cells into the device requires approximately 20 min; beginning when cells are drawn up into a Hamilton syringe and slowly dispensed into the device, and ending when the syringe has been removed from the device port and the port has been sealed. We hypothesized therefore, that cells must withstand pre-freeze exposure to CPA for 20 minutes in order to be successfully cryopreserved in devices. […]
(§1) Cells cultured as monolayers were dissociated with Accutase, pelleted, and resuspended with either normal culture media (CM) as a positive control for cell viability or with the Freeze Medium (FM) containing 10% DMSO. […] Following incubation time, cells were allowed to reattach to tissue culture plates for 24 hours and then assessed for attachment and viability. […]

Data set [2] concerns human Ins-G cells. Put plainly: Freezing dissociated Ins-G cells after pre-freeze incubation with DMSO. It is filed as cell-based. As for the experimental part: The effects of preincubation with DMSO on freeze/thaw viability were investigated. Freezing dissociated cells pre-exposed to Freeze Media containing 10% DMSO (FIG. 1B) also had no effect on cryosurvival, which per se was exceptionally good (up to 77-79% to control). In order to verify requirement for cryoprotective agents (CPA) in freezing, a sample was frozen in culture media (no DMSO). As expected, survival was very poor (11% in comparison to the positive control). […] Without being bound to theory, a possible explanation is that cell mortality resulted from slow (suboptimal) freezing injury, when cells are frozen at the rate substantially slower than the equilibrium “Mazur's rate” when the cells are just in equilibrium with freezing outer milieu. The suboptimal rates in the inverted U curve usually contributed to the effects of highly concentrated solutes rather than immediate cell destruction and fast necrosis associated with the supra-optimal (fast freezing, according to the 2-factor hypothesis developed by Mazur (Mazur et al. (1972) Experimental Cell Res., 71:345-349; Mazur et al. (2008) Biol Reprod, 78:2-12). The cell membrane rupture and other colligative osmotic damage due to excessive shrinkage and swelling usually manifest quickly as the loss of selective permeability properties so the cells become permeable to large particle dyes such Trypan Blue, soon after the treatment. The osmotic damage usually decreases with the temperature and step-wise addition and dilution (which, in fact, exposes the cells to CPA longer than an abrupt one-step addition or dilution). In contrast, a long exposure to a CPA or/and to very concentrated solutions of the cryoprotectant can manifest later in the form of, e.g., death due to specific chemical toxicity, particularly on membrane and epigenetic level as it may affect protein folding and membrane lipid bilayers, as it is shown for some types of cells (see, for example (Katkov II et al. (2006) Cryobiology, 53:194-205) for references. In contrast to osmotic damage, chemical toxicity usually exacerbates at longer exposure at higher temperature, and the prevalence of one mode vs. another can be easily differentiate by treating cells with higher temperatures and/or for longer exposure to the CPA (Katkov II (2011) Cryobiology, 62:242-4; Katkov II et al. (1998) Cryobiology, 37:325-38; Katkov II et al. (2007) Cryo Letters, 28:409-27).
as §1

The test system of data set [3] is islet like cell clusters (ICCs) of human Ins-G cells. Put plainly: ICCs loaded or frozen in TheraCyte encapsulation device. It is filed as cell-based. The note with it: frozen in TheraCyte device in 10% DMSO freezing medium. How it is done: Observing that the clusters can be exposed to DMSO both before freezing and after thawing when the cells were frozen in cryovials, cells were then frozen in the TheraCyte™ device (FIGS. 4A-C). Cells were exposed to DMSO during loading into the device. The port was then trimmed so that the device could fit a 1.5 mL cryovial which also contained 10-% DMSO freezing medium and froze them. After the vial was thawed, DMSO was eluted by placing the device in gently swirling medium solution (using magnetic stir bar). Without being limited by theory, this treatment may be sufficient to wash out the majority of DMSO before transplantation. Moreover this procedure mimics slow elution if the device is transplanted immediately after thawing, as a low concentration of DMSO is presumed to be non-toxic even for small animals. […] Barely 1/10 of loaded cells survived the whole procedure (including cutting device in pieces and placing into the dish, washing that out in 48 hrs, etc. (Experiment 4, FIG. 5). There can be several explanations for the cell loss, such as following.
We next addressed the effects of freezing ICCs inside the encapsulation device. As a control for freezing, ICCs resuspended in FM were loaded into devices which were sealed and then immediately opened and cells removed. Cell attachment following release from device averaged 64% and of the attached cells, 59% were viable. […]

Data set [4] shares this test system. Kind of data set: Freezing ICCs: pre-freeze DMSO exposure and centrifugation. It is filed as cell-based. How it is done: To more closely mimic the morphological structure of pancreatic islets, cells cultured as 3-dimensional ICCs were investigated. The first technical question was how to harvest clusters, whether by gentle (200 g×5 min) centrifugation or by settling by gravitational force (1 g). Here prefreeze exposure of the clusters to 10% DMSO at room temperature and +37° C. before freezing was investigated.
Two negative controls were employed. First (sample 1 on FIG. 2) were non-frozen clusters but the cells were exposed to 10% of DMSO for 20 min at +37° C. and centrifuged (200 g×5 min) The second control (Column #2) were cells that were not exposed top DMSO and frozen w/o it, with the same other procedures that in the first control. […] Apparently, some clusters were lost because they had not settled to the bottom of the tube either due to sub-optimal time or length of column 15-mL tube (Katkov II et al. (1999) Cell Biochem Biophys, 31:231-45). Cell clusters, it was observed, are more sensitive than dissociated cells from monolayer cultures even before and freezing (viability after thawing for the re-attached cells was in range of 61-72%, which was substantially lower than in monolayers (Experiment 2, FIG. 2). Thus, natural sedimentation was used with an increased time and decreased column length by using 50-mL conical tubes instead for the next experiments. […]

Data set [5] has the same test system. It is filed as cell-based. The note with it: for viable yield: human. How it is done: While the level of DMSO will gradually decrease during elution, the extreme point was tested and the same high level of DMSO was maintained for the longevity of the entire exposure.
Increase of temperature of elution will shorten the time of elution but DMSO might cause increased toxicity at increased temperature. Driven by this dilemma, extreme treatments of post-thawed clusters were checked starting with immediate washing of DMSO, maintaining them for 20 min on 4° C. before washing, at 25° C. for 10 and 20 min and at +37° C. at 10 and 20 min (Experiment 3, FIG. 3A). […] There was one exception however, the cells incubated at room temperature for 20 minutes performed slightly poorer than the other treatments. […] This phenomenon was observed over a large number of experiments (N=6), but its basis is unclear. […] Further experiments would be needed to determine with certainty that RT is actually more detrimental than +37° C. or ice. The surviving cells retain insulin expressing capacity for all treatments (FIG. 3B).
Ultimately, the ability to freeze cell clusters inside an encapsulation device may require that the cells survive the time required to remove CPA upon thawing. Normally, when (unencapsulated) cells are thawed, CPA is removed quickly, either by centrifugation or by extensive dilution into culture media. However, for a cell-filled device, CPA removal will be accomplished via diffusion of CPA out of device into a large volume of wash media, until equilibration is reached. We estimated that approximately 20 minutes will be required to reach equilibrium, during which time cells are exposed to CPA. We therefore first examined the effects of post-thaw exposure to CPA in unencapsulated ICCs. Because equilibrium is also temperature dependent, we exposed thawed ICCs to CPA at 25° C. or 37° C. As we can see from FIG. 3A, sample 1, a control which was not exposed to CPA or frozen, reattachment of ICCs to tissue culture plates is 48%, lower than reattachment of dissociated cells (FIG. 1, sample 1). […]

Data set [6] concerns hESCs. Kind of data set: Exposure of dissociated hESCs to cryoprotective agent. It is filed as cell-based, human. The note with it: 10% DMSO 10 or 30 min, 4° C. or 37° C., no freezing. How it is done:
hESCs are cultured as monolayers and are dissociated with Accutase, pelleted, and resuspended with either normal culture media (CM) as a positive control for cell viability or with the Freeze Medium (FM) containing 10% DMSO. Cells are either plated immediately in CM or incubated in FM for up to 30 minutes. Following incubation time, cells are allowed to reattach to tissue culture plates for 24 hours and then assessed for attachment and viability. DMSO concentration, freezing time, and freezing temperature, for example, may be varied to obtain best results for a given culture. […] As a result, the Viable Yield (the product of Attachment and Viability) is also similar among the 4 incubation conditions. Thus, exposure to DMSO without freezing produces a minimal effect on survival of dissociated cells monolayer cultures.

Data set [7] deals with insulin-GFP transgene in human Ins-G ICCs. Kind of data set: Insulin-GFP expression after freezing ICCs and post-thaw DMSO exposure. It is filed as cell-based. The settings on record: frozen, post-thaw DMSO 20 minutes at 37° C. An excerpt:
In addition to survival, it is important that ICCs retain insulin gene expression during these manipulations. Human Ins-G cells express endogenous insulin message in response to tamoxifen (which activates the transcription factor […] by promoting translocation from the cytoplasm to the nucleus). The cells were also engineered to express GFP from an insulin transgene. Therefore, GFP expression in response to tamoxifen is a surrogate for insulin expression. We examined GFP expression in control ICCs (not frozen, not exposed to DMSO) as well as in cells frozen and exposed to DMSO for 20 minutes at 37° C. (FIG. 3B).

Setting [8] is: pre-freeze 10% DMSO 10 or 30 min, +4° C. or +37° C.

Take `C[S+](C)[O-]` [DMSO, dimethyl sulfoxide]: the “tolerance of exposure to 10% DMSO” value in data set [1] is given as “well tolerated”. In addition, the “Viable Yield (product of Attachment and Viability)” value in data set [1] (human, 10 %) is 63-73%. Further, in data set [2] (frozen in Freeze Media with 10% DMSO after pre-exposure), the “cryosurvival relative to control” value was 77-79%. Also, in data set [2] (setting [8]), the “Attachment efficiency after freezing” value is 73-77%, the “Viable Yield after freezing” value is 63-73% and the “viability of re-attached cells after freezing” value is given as 86-92%. Also, the “fraction of loaded cells surviving the whole procedure” value in data set [3] is 1/10. Besides, the “viability after thawing of re-attached cells” value in data set [4] (ICCs frozen after pre-freeze 10% DMSO exposure) is on record as 61-72%. The viable yield in data set [4] (clusters exposed to 10% DMSO at +37° C. for 20 min, centrifuged 200 g×5 min) is 31%. Moreover, in data set [5], the “tolerance of post-thaw exposure to DMSO” value is given as “well tolerated” and the viable yield is recorded as 35-38%. Also, in data set [5] (20 min), the viable yield was found to be 21%. This compound registered a survival in data set [6] not below 80%. For the same compound, in data set [7], the “GFP expression versus control ICCs” value is “no significant difference”.
